Measured values reported in publication PMC3755750 (Cancer chemotherapy and pharmacology, 2013).
Where two headings read alike, the source gives them in different places.

Columns and labels:
[1] = cited from earlier work; for Fa, fraction absorbed / Bioavailability / Fraction of dose absorbed: mice; for Fa, fraction absorbed: fixed in the PBPK model; for Bioavailability: oral
[2] = cited from earlier work
[3] = ref Pubchem Compound; cited from earlier work
[4] = assay type: in vivo, mice (BALB/c, CB17 SCID, tumor-bearing CB17 SCID); settings: for Tmax: BALB/c, mouse, po; for Dose proportionality of Cmax in plasma and tissues: across mouse strains, sorafenib: all tissues except the tumor; for ka, absorption rate constant: fitted to Study#1 data, then fixed
CYP2D6 = settings: human liver microsomes; cited from earlier work
P-glycoprotein (P-gp) = settings: in vitro; cited from earlier work
CYP2C19 = settings: human liver microsomes; cited from earlier work
[5] = concomitant CYP3A4 inhibitor ketoconazole; cited from earlier work
CYP3A4 = settings: human liver microsomes; cited from earlier work
[6] = iv dosing; cited from earlier work
[7] = CB17-SCID, plasma and most tissues

For `CO[C@H]1C[C@@H]2CC[C@@H](C)[C@@](O)(O2)C(=O)C(=O)N2CCCC[C@H]2C(=O)O[C@H]([C@H](C)C[C@@H]2CC[C@@H](OCCO)[C@H](OC)C2)CC(=O)[C@H](C)/C=C(\C)[C@@H](O)[C@@H](OC)C(=O)[C@H](C)C[C@H](C)/C=C/C=C/C=C/1C` [everolimus, Everolimus], the “Fa, fraction absorbed” value [1] is given as 0.12, the Bioavailability [1] is given as 5% and the “Fraction of dose absorbed” value [1] is given as 12%. The “Increase of everolimus AUC” value ([2]; concomitant strong CYP inhibitor ketoconazole, humans) was 15 fold, the “Increase of everolimus AUC” value ([2]; moderate CYP inhibitors erythromycin, verapamil, cyclosporine) was 2.7–4.5 fold and the “Change in everolimus AUC” value ([2]; weak inhibitor atorvastatin) was “no change”. The “log P” value [3] was 5.9, the Tmax [4, 7] was 1 h and the Tmax ([4]; adipose and skin, 5 mg/kg) was no more than 6 h. The “Kbr, partition coefficient brain” value ([4]; PBPK population mean, mice) was 0.018, the “Kmu, partition coefficient muscle” value ([4]; PBPK population mean, mice) was 0.105 and the “Ksp, partition coefficient spleen” value ([4]; PBPK population mean, mice) was 0.361. For the same molecule, the “Dose proportionality of Cmax in plasma and tissues” value [4] was “dose-proportional”, the “ka, absorption rate constant” value [4] was 9.45 h⁻¹ and the “Time detected in plasma and all tissues after the last dose” value ([4]; oral dosing) was “up to 24 h”. The “Ktu, partition coefficient tumor” value ([4]; patient-derived primary pancreatic adenocarcinoma explants in SCID mice) was 0.480 and the “PK (AUC) given alone versus in combination” value ([4]; student's t test of AUCs from each study, mice) was “no statistically significant difference”.

In the case of `CNC(=O)c1cc(Oc2ccc(NC(=O)Nc3ccc(Cl)c(C(F)(F)F)c3)cc2)ccn1` [sorafenib, Sorafenib], the CYP2D6 inhibition (CYP2D6) is given as “moderate inhibitor”, the “Dose proportionality in Cmax and AUC” value ([1]; CD-1 mice, at the doses tested) is given as “dose proportionality” and the Terminal half-life ([1]; CD-1 mice) is given as 3.2 to 4.2 h. The Tmax ([1]; CD-1 mice) was 1 to 1.6 h, the “Fa, fraction absorbed” value [1] was 0.920 and the Bioavailability [1] was 80%. The “Fraction of dose absorbed” value [1] was 92%, the P-gp substrate character (P-glycoprotein (P-gp)) was “weak P-glycoprotein (P-gp) substrate” and the CYP2C19 inhibition (CYP2C19) was “moderate inhibitor”. For the same molecule, the “Change in Cmax and exposure, adverse events” value [5] was “lack of clinically relevant adverse events or change in Cmax and exposure”, the CYP3A4 inhibition (CYP3A4) was “moderate inhibitor” and the “Partition coefficient K for brain, calculated” value [6] was 0.02. The Tmax ([4]; CB17-SCID, GI tract) was 1 h, the Tmax [4, 7] was 6 h and the “Kf, partition coefficient adipose” value ([4]; PBPK population mean, mice) was 0.624. The “Kmu, partition coefficient muscle” value ([4]; PBPK population mean, mice) was 0.356, the “Ksk, partition coefficient skin” value ([4]; PBPK population mean, mice) was 0.361 and the “Clint, hepatic clearance” value ([4]; PBPK population mean, oral dosing, mice) was 6.64 mL/h. The “Dose proportionality of Cmax in plasma and tissues” value [4] was “dose-proportional”, the “ka, absorption rate constant” value [4] was 3.83 h⁻¹ and the “Time detected in plasma and all tissues after the last dose” value ([4]; oral dosing) was “up to 24 h”. For the same molecule, the “Increase in tumor exposure” value ([4]; twofold increase in sorafenib dose) was “tenfold”.
